This assay has as its system LPS stimulated human PBMCs. As to the kind of experiment: In vitro potency of steroid payloads in LPS stimulated human PBMCs (IL-1β, IL-6 ELISA). The format is cell-based. Conditions: for IL-1β and IL-6 production / IL-1β production / potency relative to the other compounds of the experiment: 1 ng/mL LPS, 24 hr; for impact of halogenation of the steroid ring on potency: compared with INX-SM-3. Background: An ELISA detects its analyte on a solid surface through an enzyme-linked reagent.

The mark [1] stands for this setting: Experiment 5, 1000-0.5 nM, n=1 donor.
Setting [2] is: Experiment 6, 1000-0.16 nM, n=1.
Where [3] appears, read: Experiment 3, 1000-0.2 nM, n=2 donors.
Where [4] appears, read: Experiment 2, 1000-1 nM, n=1 donor.

SMILES strings stand for the structures. “Also recorded” adds a separate entry of the source. Counter-ions that a name gives are not always drawn.

Take `C[C@]12C=CC(=O)C=C1CC[C@@H]1[C@@H]2[C@@H](O)C[C@@]2(C)[C@H]1C[C@H]1O[C@@H](c3ccc(CC45CCC(N)(CC4)CC5)cc3)O[C@]12C(=O)CO` [INX-SM-10, (6aR,6bS,7S, 8aS,8bS,11aR,12aS,12bS)-10-(4-((4-aminobicyclo [2.2.2]octan-1-yl)methyl)phenyl)-7-hydroxy-8b-(2-hydroxyacetyl)-6a,8a-dimethyl-1,2,6a,6b,7,8,8a,8b,11a,12,12a,12b-dodecahydro-4H-naphtho[2′,1′:4,5]indeno[1,2-d][1,3]dioxol-4-one]: the “steroid potency as free payloads in LPS-activated human PBMCS (conclusions)” value (“steroid potency as free payloads” for short) is on record as “varying degrees of dose dependent steroid potency”. Besides, the “IL-1β and IL-6 production” value under setting [1] is given as “dose dependent inhibition; also recorded: robust inhibition”.

For `C[C@]12C=CC(=O)C=C1CC[C@@H]1[C@@H]2[C@@H](O)C[C@@]2(C)[C@H]1C[C@H]1O[C@@H](c3ccc(Cc4ncc(N)s4)cc3)O[C@]12C(=O)CO` [INX-SM-7, (6aR,6bS,7S,8aS,8bS,10R,11aR,12aS,12bS)-10-(4-((5-aminothiazol-2-yl)methyl)phenyl)-7-hydroxy-8b-(2-hydroxyacetyl)-6a,8a-dimethyl-1,2,6a,6b,7,8,8a,8b,11a,12,12a,12b-dodecahydro-4H-naphtho[2′,1′:4,5]indeno[1,2-d][1,3]dioxol-4-one], the “steroid potency as free payloads” value was “varying degrees of dose dependent steroid potency”. Also, the IL-1β production result under setting [2] is listed as “dose-dependent inhibition”.

For `C[C@@]12CCC3=CC(=O)C=C[C@]3(C)[C@H]1[C@@H](O)C[C@@]1(C)[C@H]2C[C@H]2O[C@@H](c3ccc(CC4CC5(CC(N)C5)C4)cc3)O[C@]21C(=O)CO` (stereo partly drawn) [INX-SM-32, (6aR,6bS,7S,8aS,8bS,11aR,12aS,12bS)-10-(4-((6-aminospiro[3.3]heptan-2-yl)methyl)phenyl)-7-hydroxy-8b-(2-hydroxyacetyl)-6a,8a-dimethyl-1,2,6a,6b,7,8,8a,8b,11a,12,12a,12b-dodecahydro-4H-naphtho[2′,1′:4,5]indeno[1,2-d][1,3]dioxol-4-one], the “steroid potency as free payloads” value is given as “varying degrees of dose dependent steroid potency”. Further, the “IL-1β and IL-6 production” value (Experiment 4, 500-1 nM, n=2) was “dose dependent inhibition in IL-1β and IL-6 production”.

For the molecule `C[C@]12C=CC(=O)C=C1CC[C@@H]1[C@@H]2[C@@H](O)C[C@@]2(C)[C@H]1C[C@H]1O[C@@H](c3ccc(CC4COC5(CNC5)C4)cc3)O[C@]12C(=O)CO` (stereo partly drawn) [INX-SM-31, (6aR,6bS,7S,8aS,8bS,11aR,12aS,12bS)-10-(4-((5-oxa-2-azaspiro[3.4]octan-7-yl)methyl)phenyl)-7-hydroxy-8b-(2-hydroxyacetyl)-6a,8a-dimethyl-1,2,6a,6b,7,8,8a,8b,11a,12,12a,12b-dodecahydro-4H-naphtho[2′,1′:4,5]indeno[1,2-d][1,3]dioxol-4-one], the “steroid potency as free payloads” value is reported as “varying degrees of dose dependent steroid potency; also recorded: lowest potency among the R stereoisomers” and the “potency relative to the other compounds of the experiment” value is given as “least potent compound among these compounds tested”. Besides, the IL-1β production result under setting [3] is “dose dependent inhibition”.

With `C[C@@]12CCC3=CC(=O)C=C[C@]3(C)[C@H]1[C@@H](O)C[C@@]1(C)[C@H]2C[C@H]2O[C@@H](c3ccc(CC45C6C7C4C4C5C6C74N)cc3)O[C@]21C(=O)CO` (stereo partly drawn) [INX-SM-9, (6aR,6bS,7S,8aS,8bS,10R,11aR,12aS,12bS)-10-(4-((4-aminocuban-1-yl)methyl)phenyl)-7-hydroxy-8b-(2-hydroxyacetyl)-6a,8a-dimethyl-1,2,6a,6b,7,8,8a,8b,11a,12,12a,12b-dodecahydro-4H-naphtho[2′,1′:4,5]indeno[1,2-d][1,3]dioxol-4-one], the “steroid potency as free payloads” value was “varying degrees of dose dependent steroid potency”. Further, the IL-1β production entry under setting [3] was “dose dependent inhibition”.

Take `C[C@]12C=CC(=O)C=C1CC[C@@H]1[C@@H]2[C@@H](O)C[C@@]2(C)[C@H]1C[C@H]1O[C@@H](c3cnc(Cc4cccc(N)c4)s3)O[C@]12C(=O)CO` [INX-SM-6, (6aR,6bS,7S, 8aS,8bS,10R,11aR,12aS,12bS)-10-(2-(3-aminobenzyl)thiazol-5-yl)-7-hydroxy-8b-(2-hydroxyacetyl)-6a,8a-dimethyl-1,2,6a,6b,7,8,8a,8b, 11a,12,12a,12b-dodecahydro-4H-naphtho[2′,1′:4,5]indeno[1,2-d][1,3]dioxol-4-one]: the “steroid potency as free payloads” value is reported as “varying degrees of dose dependent steroid potency”. In addition, the IL-1β production result under setting [4] is reported as “show inhibition in IL-1β production”.

Regarding `C[C@]12C=CC(=O)C=C1CC[C@@H]1[C@@H]2[C@@H](O)C[C@@]2(C)[C@H]1C[C@H]1O[C@H](c3cnc(Cc4cccc(N)c4)s3)O[C@]12C(=O)CO` [INX-SM-56, (6aR,6bS,7S, 8aS,8bS,10S,11aR,12aS,12bS)-10-(2-(3-aminobenzyl)thiazol-5-yl)-7-hydroxy-8b-(2-hydroxyacetyl)-6a,8a-dimethyl-1,2,6a,6b,7,8,8a,8b, 11a,12,12a,12b-dodecahydro-4H-naphtho[2′,1′:4,5]indeno[1,2-d][1,3]dioxol-4-one], the “steroid potency as free payloads” value was “did not show potency”. In addition, under setting [4], the IL-1β production entry is listed as “did not show inhibition”.

Regarding `C[C@]12C=CC(=O)C=C1[C@@H](F)C[C@H]1[C@@H]3C[C@H]4O[C@@H](c5ccc(CC67CC(N)(C6)C7)cc5)O[C@@]4(C(=O)CO)[C@@]3(C)C[C@H](O)[C@@]12F` [INX-SM-24, (2S,6aS,6bR,7S,8aS,8bS,10R,11aR,12aS,12bS)-10-(4-((3-aminobicyclo[1.1.1]pentan-1-yl)methyl)phenyl)-2,6b-difluoro-7-hydroxy-8b-(2-hydroxyacetyl)-6a,8a-dimethyl-1,2,6a,6b,7,8,8a,8b,11a,12,12a,12b-dodecahydro-4H-naphtho[2′,1′:4,5]indeno[1,2-d][1,3]dioxol-4-one], the “steroid potency as free payloads” value is “varying degrees of dose dependent steroid potency”. Also, the “impact of halogenation of the steroid ring on potency” value (Experiment 6, 1000-0.16 nM) is listed as “increased potency over the non-fluorinated INX-SM-3”.

In the case of `C[C@]12C=CC(=O)C=C1CC[C@@H]1[C@@H]2[C@@H](O)C[C@@]2(C)[C@H]1C[C@H]1O[C@@H](c3ccc(CC4(N)COC4)cc3)O[C@]12C(=O)CO` [INX-SM-33, (6aR,6bS,7S,8aS,8bS,10R,11aR,12aS,12bS)-10-(4-((3-aminooxetan-3-yl)methyl)phenyl)-7-hydroxy-8b-(2-hydroxyacetyl)-6a,8a-dimethyl-1,2,6a,6b,7,8,8a,8b,11a,12,12a,12b-dodeca hydro-4H-naphtho[2′,1′:4,5]indeno[1,2-d][1,3]dioxol-4-one], the “steroid potency as free payloads” value is on record as “varying degrees of dose dependent steroid potency; also recorded: lowest potency among the R stereoisomers” and the “potency relative to the other compounds of the experiment” value was “least potent compound among these compounds tested”. Also, under setting [1], the “IL-1β and IL-6 production” value is “dose dependent inhibition; also recorded: modest inhibition”.

With `C[C@]12C=CC(=O)C=C1CC[C@H]1[C@@H]3C[C@H]4O[C@@H](c5ccc(CC67CC(N)(C6)C7)cc5)O[C@@]4(C(=O)CO)[C@@]3(C)C[C@H](O)[C@@]12F` [INX-SM-13, (6aS,6bR,7S,8aS,8bS,10R,11aR,12aS,12bS)-10-(4-((3-aminobicyclo[1.1.1]pentan-1-yl)methyl)phenyl)-6b-fluoro-7-hydroxy-8b-(2-hydroxyacetyl)-6a,8a-dimethyl-1,2,6a,6b,7,8,8a,8b,11a,12,12a,12b-dodecahydro-4H-naphtho[2′,1′:4,5]indeno[1,2-d][1,3]dioxol-4-one], the “steroid potency as free payloads” value is reported as “varying degrees of dose dependent steroid potency”. In addition, the “impact of halogenation of the steroid ring on potency” value (Experiment 6, 1000-0.16 nM) is “did not lead to increased potency”.

As to `C[C@]12C=CC(=O)C=C1CC[C@@H]1[C@@H]2[C@@H](O)C[C@@]2(C)[C@H]1C[C@H]1O[C@@H](c3ccc(Cc4csc(N)n4)cc3)O[C@]12C(=O)CO` [INX-SM-2, (6aR,6bS,7S,8aS,8bS,10R,11aR,12aS,12bS)-10-(4-((2-aminothiazol-4-yl)methyl)phenyl)-7-hydroxy-8b-(2-hydroxyacetyl)-6a,8a-dimethyl-1,2,6a,6b,7,8,8a,8b,11a,12,12a,12b-dodecahydro-4H-naphtho[2′,1′:4,5]indeno[1,2-d][1,3]dioxol-4-one AcOH salt], the “steroid potency as free payloads” value was “varying degrees of dose dependent steroid potency”. Also, the IL-1β production result under setting [2] is recorded as “dose-dependent inhibition”.

As for `C[C@]12C=CC(=O)C=C1CC[C@@H]1[C@@H]2[C@@H](O)C[C@@]2(C)[C@H]1C[C@H]1O[C@H](c3ccc(CC45CC(N)(C4)C5)cc3)O[C@]12C(=O)CO` [INX-SM-53, (6aR,6bS,7S,8aS,8bS,10S,11aR,12aS,12bS)-10-(4-((3-aminobicyclo[1.1.1]pentan-1-yl)methyl)phenyl)-7-hydroxy-8b-(2-hydroxyacetyl)-6a,8a-dimethyl-1,2,6a,6b,7,8,8a,8b, 11a,12,12a,12b-dodecahydro-4H-naphtho[2′,1′:4,5]indeno[1,2-d][1,3]dioxol-4-one], the “steroid potency as free payloads” value is “did not show potency”. In addition, where the note is “Experiment 1, 1000-1 nM, n=1 donor”, the “IL-1β and IL-6 production” value is recorded as “did not show inhibition”.

For the origin of these results see US20230310634A1, “ANTI-HUMAN VISTA ANTIBODIES AND USE THEREOF” (IMMUNEXT, INC., priority 2020, published 2023).
